Measurements published in PMC4222048 (European journal of pharmacology, 2014).
Where a chain is given by its changes, count along the chain named. Structures can show the parent of a compound that is named as a salt. Where two headings read alike, the source gives them in different places.

Key:
human K2P18.1 = biological target: T1, human K2P18.1 (Homo sapiens, UniProt Q7Z418); experiment: Thallium-flux assay, HEK293 cells transfected with human K2P18.1; assay type: cell-based; settings: for K2P18.1 Minimum Activity: fitted minimum, fixed at 0 where indicated
T1 sequence (Q7Z418 1-384): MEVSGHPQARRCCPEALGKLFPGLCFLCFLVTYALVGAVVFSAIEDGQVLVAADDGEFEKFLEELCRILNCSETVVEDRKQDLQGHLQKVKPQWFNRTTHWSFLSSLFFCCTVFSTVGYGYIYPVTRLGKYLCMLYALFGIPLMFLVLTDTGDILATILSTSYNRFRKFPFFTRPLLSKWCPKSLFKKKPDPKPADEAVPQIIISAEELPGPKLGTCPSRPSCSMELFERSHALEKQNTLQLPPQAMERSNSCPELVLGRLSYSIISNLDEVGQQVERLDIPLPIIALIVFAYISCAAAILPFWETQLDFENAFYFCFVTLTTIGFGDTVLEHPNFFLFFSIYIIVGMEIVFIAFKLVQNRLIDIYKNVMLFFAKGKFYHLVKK

K2P9.1 [1] = biological target: T2, K2P9.1 (Homo sapiens, UniProt Q9NPC2); experiment: Thallium-flux counter assay, tetracycline induced HEK293-K2P9.1 cells; assay type: cell-based; settings: for K2P9.1 Maximum Activity: dash = lack of compound activity
[2] = biological target: T3, wild type K2P18.1 (wtK2P18.1) (Homo sapiens, UniProt Q7Z418); experiment: Whole-cell patch clamp, HEK293-wtK2P18.1; assay type: cell-based
T3 sequence (Q7Z418 1-384): T1 sequence (Q7Z418 1-384)

[3] = biological target: T4, F145A/F352A double mutant K2P18.1 (mutK2P18.1) (Homo sapiens, UniProt Q7Z418, F145A/F352A); experiment: Thallium-flux assay, F145A/F352A double mutant K2P18.1 in HEK293 cells; assay type: cell-based
T4 sequence (Q7Z418 1-384 F145A/F352A): T1 sequence (Q7Z418 1-384) with F145A, F352A

[4] = biological target: T4, F145A/F352A double mutant K2P18.1 (mutK2P18.1); experiment: Whole-cell patch clamp, HEK293-mutK2P18.1; settings: read-out: inhibition of mutK2P18.1 current
K2P9.1 [5] = biological target: T2, K2P9.1; experiment: Whole-cell patch clamp, tetracycline induced HEK293-K2P9.1 cells; assay type: cell-based
[6] = read-out: K2P18.1 EC50, validation assay, Tl+ flux, activators, highest 30 μM
[7] = validation assay, Tl+ flux, activators
[8] = read-out: K2P9.1 EC50, validation assay, Tl+ flux, activators, highest 30 μM
[9] = read-out: K2P9.1 IC50, validation assay, Tl+ flux, HEK293-K2P9.1, highest 30 μM

T2 sequence (Q9NPC2 whole entry): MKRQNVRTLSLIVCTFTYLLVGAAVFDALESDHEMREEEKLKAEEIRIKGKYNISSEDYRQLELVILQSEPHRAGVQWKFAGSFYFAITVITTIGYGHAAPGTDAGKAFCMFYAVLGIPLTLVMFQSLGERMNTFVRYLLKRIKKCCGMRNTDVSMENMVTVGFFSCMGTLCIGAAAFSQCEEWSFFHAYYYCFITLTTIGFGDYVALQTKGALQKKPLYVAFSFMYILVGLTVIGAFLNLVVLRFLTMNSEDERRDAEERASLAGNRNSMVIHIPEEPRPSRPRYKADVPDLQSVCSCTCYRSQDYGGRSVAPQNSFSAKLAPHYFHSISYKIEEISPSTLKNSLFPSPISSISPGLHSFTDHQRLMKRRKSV

**Q.** How did the “K2P18.1 Minimum Activity” value (human K2P18.1; validation assay, Tl+ flux) turn out when Br.CO[C@H]1CC=C2CCN3CCC4=C(CC(=O)OC4)[C@]23C1 [Dihydro-beta-erythroidine hydrobromide] was run?
**A.** 0 (fixed) %

**Q.** With C[C@@H]1O[C@H](C[N+](C)(C)C)CS1.[I-] [OXA-22 Iodide] as the compound, how does the EC50 (human K2P18.1; [6]) read?
**A.** 60 nM

**Q.** What about the “K2P18.1 Maximum Activity” value (human K2P18.1; [7]) of the same compound?
**A.** 166 (± 4.50) %

**Q.** And the EC50 (K2P9.1 [1]; [8])?
**A.** > 30 µM

**Q.** What about the “K2P9.1 Maximum Activity” value (K2P9.1 [1]; [7]) of the same compound?
**A.** -

**Q.** What does the source list for CC(C)c1ccc2c(c1)c(SC(C)(C)C)c(CC(C)(C)C(=O)O)n2Cc1ccc(Cl)cc1 [MK-886]?
**A.** K2P18.1 Minimum Activity (human K2P18.1; validation assay, Tl+ flux): 23.5 (± 6.6) %; IC50 (K2P9.1 [1]; [9]): > 30 µM

**Q.** Which “K2P18.1 Minimum Activity” value (human K2P18.1; validation assay, Tl+ flux) does the source give for Oligomycin A here?
**A.** 52.0 (± 4.21) %

**Q.** For Ic1ccccc1CNC1C2CCN(CC2)C1C(c1ccccc1)c1ccccc1.O=C(O)C(=O)O [L-703,606 oxalate], which “K2P18.1 Minimum Activity” value (human K2P18.1; validation assay, Tl+ flux) is on record?
**A.** 1.30 (± 9.2) %

**Q.** For CCOC(=O)N1CCC(=C2c3ccc(Cl)cc3CCc3cccnc32)CC1 [Loratadine], which IC50 [2] is on record?
**A.** 490 ± 230 nM

**Q.** And the “selectivity for K2P18.1 over K2P9.1” value ([2]; from patch clamp IC50 values)?
**A.** ~ 11 fold

**Q.** And the inhibition at 10 µM ([2]; read-out: inhibition of wtK2P18.1 current)?
**A.** 87.5 ± 3.7%

**Q.** What about the “K2P18.1 Minimum Activity” value (human K2P18.1; validation assay, Tl+ flux) of the same compound?
**A.** 0 (fixed) %

**Q.** And the inhibition at 150 µM ([3]; HEK293, read-out: inhibition against mutK2P18.1)?
**A.** < 50%

**Q.** What about the “lower potency against mutK2P18.1 compared to wtK2P18.1” value ([3]; Tl+ flux) of the same compound?
**A.** at least 50 fold

**Q.** What about the inhibition at 10 µM [4] of the same compound?
**A.** 3.9 ± 13.3%

**Q.** And the IC50 (K2P9.1 [5])?
**A.** 5.27 ± 1.69 µM

**Q.** With CC1OCC(C[N+](C)(C)C)O1.[I-] (single isomer, unassigned; (+)) [(+)-cis-Dioxolane iodide] as the compound, how does the EC50 (human K2P18.1; [6]) read?
**A.** 40 nM

**Q.** What about the “K2P18.1 Maximum Activity” value (human K2P18.1; [7]) of the same compound?
**A.** 165 (± 3.00) %

**Q.** What about the EC50 (K2P9.1 [1]; [8]) of the same compound?
**A.** > 30 µM

**Q.** And the “K2P9.1 Maximum Activity” value (K2P9.1 [1]; [7])?
**A.** -

**Q.** Which results are given for C/C=C1\C(=O)C[C@H]2[C@@H]3CCC4=CC(=O)CC[C@]4(C)[C@H]3CC[C@]12C [(Z)-Gugglesterone]?
**A.** K2P18.1 Minimum Activity (human K2P18.1; validation assay, Tl+ flux): 0 (fixed) %; IC50 (K2P9.1 [1]; [9]): > 30 µM

**Q.** CCCCOC(=O)NS(=O)(=O)c1sc(CC(C)C)cc1-c1ccc(Cn2c(CC)nc3c(C)cc(C)nc32)cc1 [L-162,313] was tested. Which “K2P18.1 Minimum Activity” value (human K2P18.1; validation assay, Tl+ flux) did it give?
**A.** 15.5 (± 12.5) %

**Q.** What about the IC50 (K2P9.1 [1]; [9]) of the same compound?
**A.** > 30 µM

**Q.** How did the EC50 (human K2P18.1) turn out when C[N+](C)(C)CC#CCN1CCCC1=O [Oxotremorine Methiodide] was run?
**A.** 240 nM

**Q.** And the “K2P18.1 Maximum Activity” value (human K2P18.1; [7])?
**A.** 171 (± 4.60) %

**Q.** And the EC50 (K2P9.1 [1])?
**A.** > 30 µM

**Q.** What about the “K2P9.1 Maximum Activity” value (K2P9.1 [1]; [7]) of the same compound?
**A.** -

**Q.** With COCC(=O)O[C@]1(CCN(C)CCCc2nc3ccccc3[nH]2)CCc2cc(F)ccc2[C@@H]1C(C)C [Mibefradil dihydrochloride] as the compound, how does the “K2P18.1 Minimum Activity” value (human K2P18.1; validation assay, Tl+ flux) read?
**A.** 11.9 (± 2.04) %

**Q.** What does the source list for CC(=O)c1c(O)c(C)c(O)c(Cc2c(O)c3c(c(C(=O)/C=C/c4ccccc4)c2O)OC(C)(C)C=C3)c1O [Rottlerin]?
**A.** IC50 (human K2P18.1): 16.2 µM; K2P18.1 Minimum Activity (human K2P18.1; validation assay, Tl+ flux): 17.2 (± 42.4) %; IC50 (K2P9.1 [1]): > 30 µM

**Q.** How did the “K2P18.1 Minimum Activity” value (human K2P18.1; validation assay, Tl+ flux) turn out when CN(C)c1cc2c(Nc3ccc4c(cnn4Cc4ccccc4)c3)ncnc2cn1 [GW2974] was run?
**A.** 0 (fixed) %

**Q.** For Cl.Cl.Fc1ccc(C(OCCN2CCN(CCCc3ccccc3)CC2)c2ccc(F)cc2)cc1 [GBR-12909 dihydrochloride], which “K2P18.1 Minimum Activity” value (human K2P18.1; validation assay, Tl+ flux) is on record?
**A.** 0 (fixed) %

**Q.** What about the IC50 (K2P9.1 [1]; [9]) of the same compound?
**A.** > 30 µM

**Q.** CCCn1c(C)c(C(=O)c2cccc3ccccc23)c2ccccc21 [JWH-015] was tested. Which “K2P18.1 Minimum Activity” value (human K2P18.1; validation assay, Tl+ flux) did it give?
**A.** 26.7 (± 2.1) %

**Q.** What about the IC50 (K2P9.1 [1]; [9]) of the same compound?
**A.** > 30 µM

**Q.** Which “K2P18.1 Minimum Activity” value (human K2P18.1; validation assay, Tl+ flux) does the source give for CN1CCN(C2Cc3ccccc3Sc3ccc(Cl)cc32)CC1.O=C(O)/C=C\C(=O)O (racemic) [(±)-Octoclothepin maleate] here?
**A.** 0 (fixed) %
